Data reported in patent US20110245528A1, “THERAPEUTIC COMPOUNDS” (priority 2008, published 2011).

Tests used:
Lewis rats = assay: Rat Collagen-induced Arthritis (rCIA) Model; format: in vivo; conditions: paw swelling, bovine type II collagen-induced arthritis, oral gavage 0.3 mg/kg BID from day 8, day of peak disease, typically day 17
Protocol: Two-month-old, female Lewis rats (Charles River Labs) were anesthetized with 3-5% isoflurane and arthritis was induced by intradermal injection of 0.3 ml (100 μl at three different sites) of an emulsion containing 1.5 mg/ml of bovine type II collagen (CII) (Elastin Products Co. Inc. Owensville, Mo.) in Incomplete Freund's Adjuvant (IFA) (Difco Laboratories, Detroit, Mich.) on day 0 at the base of the tail using a 30 gauge needle. A second injection was given on day 6. Control rats were injected with an equal amount of IFA only.
Test compounds of Formula I are formulated by diluting concentrated ethanol stock solutions with phosphate buffered saline (PBS) and dosed by oral gavage at 0.3 mg/kg twice a day (BID). Dosing was initiated on day 8 and continued to the end of the study, generally day 19 or day 20. Control animals were administered PBS alone.
The volume of both hind paws were measured using a water displacement plethysmometer (Ugo Basile, Biological Research Apparatus, Italy), and the onset of arthritis was indicated by increased paw volume, which appears approximately on day 11 post injection. Both paw volumes and body weights are measured throughout the study every 2-3 days. Nineteen to twenty-one days after CII injection, the rats are euthanized with CO2. Blood is collected by cardiac puncture and serum is saved. Both hind ankles are collected in 10% buffered formalin and saved (they can later be processed for histology).
Percent inhibition values were measured as follows. First, the magnitude of disease effect was calculated by taking the difference in paw swelling between control animals and animals that had not been administered CII (“untreated effect”). Then, the difference is paw swelling between the compound-treated animals and the animals that had not been administered CII was determined (“treated effect”). The difference between the untreated effect and the treated effect is then divided by the […] and multiplied by 100 to arrive at percent inhibition. Percent inhibition reported was from day of “peak” or maximal disease (manifested by maximum paw swelling), typically day 17.

Balb/c mice = assay: Murine Delayed-type-Hypersensitivity (DTH) Model; format: in vivo; conditions: Mus musculus, iv; ear swelling after DNFB challenge; 0.3 mg/kg intravenously once daily; measured within 24 to 48 hours after ear challenge
Protocol: Balb/c mice were sensitized by application of 20 μl of 0.5% of DNFB dissolved in acetone/olive oil to their footpads on day 0 and day 1. On day 5 animals are dosed intravenously with 0.3 mg/kg of test compound (or a negative control). Fifteen minutes later, 10 μl of 0.8% of DNFB dissolved in acetone/olive oil is topically applied externally on the right ear of the animal. As a control, the left ear is treated the same way with vehicle alone (acetone/olive oil).
The compounds (controls and test) are administered once daily until the completion of the study.
Within 24 to 48 hours after ear challenge, animals are anesthetized with isoflurane and the ear swelling is measured using a micrometer. The micrometer calipers are closed around the top portion of the each external ear until resistance from the ear is felt. Usually, the peak of the ear swelling happens around 48 hours after challenge.
Percent inhibition is determined in a similar manner as described for the CII model, above.

Compound	inhibition in vivo at 0.3 mg/kg (Lewis rats) [%]	inhibition in vivo at 0.3 mg/kg (Balb/c mice) [%]
O=C(O)CCC[C@H](O)C#C/C=C/C=C/[C@H](O)Cc1ccc(F)cc1 [Compound 303]	0	21
C#CC[C@@H](O)/C=C/C=C/C#C[C@H](O)CCCC(=O)O [Compound 323]	38	46
O=C(O)CC[C@H](O)C#C/C=C/C=C/[C@H](O)CC1CC1 [Compound 315]	7	32
C#CCC/C=C/C=C/C#C[C@@H](O)CCCC(=O)O [Compound 302]	37	24
C#CC[C@@H](O)/C=C/C=C/C#CC(F)(F)CCCC(=O)O [Compound 320]	18	35
O=C(O)CCC[C@H](O)C#C/C=C/C=C/[C@H](O)CC#Cc1ccc(Cl)c(Cl)c1 [Compound 314]	27	28
C#CC[C@@H](O)/C=C/C=C/C#CCCCCC(=O)O [Compound 301]	11	15
C#CC[C@@H](O)/C=C/C=C/[C@@H]1C[C@@H]1[C@@H](O)CCCC(=O)O [Compound 321]	10	32
O=C(O)CCC[C@H](O)C#C/C=C/C=C/[C@H](O)CC#Cc1ccc(F)cc1 [Compound 306]		16
O=C(O)CCC[C@H](O)C#C/C=C/C=C/[C@H](O)CC1CC1 [Compound 304]	28	20
